# Read-outs that look alike come from different tables or passages of the source. Marks after values point to notes of the source that are not given here.
# Tests used:
# [1] = Drug-drug interaction study, 2D regimen with warfarin; assay type: in vivo, human healthy volunteers; conditions: for change in the Cmax and AUC values upon coadministration: warfarin + 2D regimen vs alone; for Cmax, Coadministration / AUC (AUC∞), Alone: warfarin study, geometric mean (%CV); for Cmax, Coadministration: warfarin + 2D regimen; for AUC (AUC∞), Alone: warfarin without 2D regimen
# [2] = Drug-drug interaction study, 2D regimen with omeprazole; assay type: in vivo, human healthy volunteers; conditions: for change in the Cmax and AUC values upon coadministration: 2D regimen + omeprazole vs 2D regimen alone
# [3] = Drug-drug interaction study, 2D regimen with digoxin; assay type: in vivo, human healthy volunteers; conditions: for change in the Cmax and AUC values upon coadministration: 2D regimen + digoxin vs 2D regimen alone
# [4] = Drug-drug interaction study, 2D regimen with pravastatin; assay type: in vivo, human healthy volunteers; conditions: for increase in AUC upon coadministration / increase in Cmax upon coadministration: pravastatin + 2D regimen vs alone
# [5] = Drug-drug interaction study, 2D regimen with rosuvastatin; assay type: in vivo, human healthy volunteers; conditions: for increase in AUC upon coadministration / increase in Cmax upon coadministration: rosuvastatin + 2D regimen vs alone
# [6] = Drug-drug interaction study, 2D regimen with duloxetine, plasma pharmacokinetics; assay type: in vivo, human healthy volunteers; conditions: for change in the Cmax and AUC values upon coadministration: duloxetine + 2D regimen vs alone
# [7] = assay type: in vivo, human healthy volunteers; conditions: coadministration vs alone; except in the ketoconazole study
# [8] = in vitro; cited from earlier work
# [9] = Drug-drug interaction study, 2D regimen with ketoconazole; assay type: in vivo, human healthy volunteers; conditions: ketoconazole + 2D regimen vs alone
# [10] = cited from earlier work
# [11] = test system: HCV subtypes 1a, 1b, 2a, 3a, 4a, and 6a; conditions: cited from earlier work
# [12] = test system: organic anion-transporting polypeptide 1B1/B3 (OATP1B1/B3); conditions: in vitro, at clinically relevant concentrations; cited from earlier work
# [13] = test system: P-glycoprotein (P-gp); conditions: in vitro, at clinically relevant concentrations; cited from earlier work
# [14] = test system: breast cancer resistance protein (BCRP); conditions: in vitro, at clinically relevant concentrations; cited from earlier work
# [15] = human, in vivo
# [16] = test system: genotypes other than genotype 1; conditions: cited from earlier work
# [17] = assay type: in vivo, human healthy volunteers; conditions: for change in the Cmax and AUC values in the presence of the 2D regimen: except escitalopram AUC
# [18] = 2D regimen + rosuvastatin vs 2D regimen alone
# [19] = omeprazole + 2D regimen vs omeprazole alone
# [20] = digoxin + 2D regimen vs digoxin alone
# [21] = escitalopram + 2D regimen vs escitalopram alone
# [22] = escitalopram study, escitalopram + 2D regimen, geometric mean (%CV)
smiles,measurement,setting,value
"CC(C)c1nc(CN(C)C(=O)N[C@H](C(=O)N[C@@H](Cc2ccccc2)C[C@H](O)[C@H](Cc2ccccc2)NC(=O)OCc2cncs2)C(C)C)cs1 [Ritonavir, ritonavir]",change in the Cmax and AUC values upon coadministration,[1],≤ 15%
same,change in the Cmax and AUC values upon coadministration,[2],≤ 7%
same,change in the Cmax and AUC values upon coadministration,[3],≤ 15%
same,increase in AUC upon coadministration,[4],37%
same,increase in Cmax upon coadministration,[4],37%
same,change in Cmax and AUC values upon coadministration,[5]; [18],≤ 12%
same,change in the Cmax and AUC values upon coadministration,[6],≤ 10%
same,Tmax and t1/2 (where calculated),[7],not affected in a meaningful way
same,metabolic pathway,[8],primarily metabolized by cytochrome P450 3A (CYP3A)
"CC[C@H](C)C(=O)O[C@H]1C[C@H](O)C=C2C=C[C@H](C)[C@H](CC[C@@H](O)C[C@@H](O)CC(=O)O)[C@H]21 [Pravastatin, pravastatin]",increase in AUC upon coadministration,[4],76%
same,increase in Cmax upon coadministration,[4],43%
"COc1ccc2[nH]c([S+]([O-])Cc3ncc(C)c(OC)c3C)nc2c1 (stereo not drawn) [Omeprazole, omeprazole]",AUC(0-t),"[2]; human, plasma, 40 mg",1170 ng·h/mL
same,decrease in exposures upon coadministration,[2]; [19],approximately 50%
same,reduction in AUC in the presence of the 2D regimen,[2]; [19],54%
same,reduction in Cmax in the presence of the 2D regimen,[2]; [19],52%
"Cc1cnc(C(=O)N[C@H]2CCCCC/C=C\[C@@H]3C[C@@]3(C(=O)NS(=O)(=O)C3CC3)NC(=O)[C@@H]3C[C@@H](Oc4nc5ccccc5c5ccccc45)CN3C2=O)cn1 [Paritaprevir, paritaprevir]",increase in AUC upon coadministration,[9],116%
same,increase in Cmax upon coadministration,[9],72%
same,"mean t1/2, fold longer upon coadministration",[9],more than 2 fold
same,increase in exposures upon coadministration,[9]; Cmax and AUC,up to 116%
same,change in the Cmax and AUC values upon coadministration,[1],≤ 15%
same,change in the Cmax and AUC values upon coadministration,[2],≤ 7%
same,change in the Cmax and AUC values upon coadministration,[3],≤ 15%
same,increase in AUC upon coadministration,[4],33%
same,increase in Cmax upon coadministration,[4],44%
same,increase in AUC upon coadministration,[5],22%
same,increase in Cmax upon coadministration,[5],40%
same,change in the Cmax and AUC values upon coadministration,[6],≤ 10%
same,Tmax and t1/2 (where calculated),[7],not affected in a meaningful way
same,exposures higher than those observed with the 150-mg paritaprevir dose,[10]; paritaprevir 200 mg,approximately 93%
same,exposures higher than those observed with the 150-mg paritaprevir dose,[10]; paritaprevir 250 mg,~250%
same,in vitro antiviral activity,[11],show in vitro antiviral activity
same,metabolic pathway,[8],primarily metabolized by cytochrome P450 3A (CYP3A)
same,OATP1B1/B3 inhibition,[12],inhibitor
same,P-gp inhibition,[13],potential inhibitors
same,BCRP inhibition,[14],potential inhibitors
"CNCC[C@H](Oc1cccc2ccccc12)c1cccs1 [Duloxetine, duloxetine]",change in the Cmax and AUC values upon coadministration,[6],≤ 20%
same,AUC(0-inf),"[6]; human, plasma, oral, 60 mg",648 ng·h/mL
"C[C@H]1O[C@@H](O[C@H]2[C@@H](O)C[C@H](O[C@H]3[C@@H](O)C[C@H](O[C@H]4CC[C@@]5(C)[C@H](CC[C@@H]6[C@@H]5C[C@@H](O)[C@]5(C)[C@@H](C7=CC(=O)OC7)CC[C@]65O)C4)O[C@@H]3C)O[C@@H]2C)C[C@H](O)[C@@H]1O [Digoxin, digoxin]",increase in AUC upon coadministration,[3]; [20],36%
same,increase in C24 upon coadministration,[3]; [20],24%
same,increase in Cmax upon coadministration,[3]; [20],58%
same,ratio of fraction excreted (fraction of unchanged drug eliminated in the urine),"[3]; digoxin + 2D regimen vs digoxin alone, urine",1.01
same,AUC(0-inf),"[3]; human, plasma, 0.5 mg",27.8 ng·h/mL
"C=CCN1CC[C@]23c4c5ccc(O)c4O[C@H]2C(=O)CC[C@@]3(O)[C@H]1C5 [Naloxone, naloxone]","AUC (AUCtau, AUC24), dose normalized, Alone",[15],"139 (53)^d^,^j pg · h/ml/mg"
same,"AUC (AUCtau, AUC24), dose normalized, Coadministration",[15],"154 (76)^d^,^j pg · h/ml/mg"
same,"Cmax, dose normalized, Alone",[15],59.0 (44)^i pg/ml/mg
same,"Cmax, dose normalized, Coadministration",[15],58.1 (61)^i pg/ml/mg
same,change in the Cmax and AUC values upon coadministration,[15],≤ 11%
"CC(C)c1nc(N(C)S(C)(=O)=O)nc(-c2ccc(F)cc2)c1/C=C/[C@@H](O)C[C@@H](O)CC(=O)O [Rosuvastatin, rosuvastatin]",increase in AUC upon coadministration,[5],33%
same,increase in Cmax upon coadministration,[5],161%
same,increase in exposures upon coadministration,[5]; rosuvastatin + 2D regimen vs rosuvastatin alone,≤ 161%
"COc1c(-c2ccc3cc(NS(C)(=O)=O)ccc3c2)cc(-n2ccc(=O)[nH]c2=O)cc1C(C)(C)C [Dasabuvir, dasabuvir]",activity against HCV genotypes other than genotype 1,[16],not active
"CNCCC[C@@]1(c2ccc(F)cc2)OCc2cc(C#N)ccc21 [S-Desmethylcitalopram, S-desmethylcitalopram]",change in the Cmax and AUC values in the presence of the 2D regimen,[17]; [21],≤ 20%
same,"AUC (AUC∞), Coadministration",[17]; [22],167 (11)^b ng · h/ml
same,"Cmax, Coadministration",[17]; [22],1.77 (26) ng/ml
same,"AUC (AUC∞), Alone","[17]; escitalopram study, escitalopram without 2D regimen, geometric mean (%CV)",153 (16)^b ng · h/ml
"CC(=O)C[C@H](c1ccccc1)c1c(O)c2ccccc2oc1=O [R-Warfarin, R-warfarin]","Cmax, Coadministration",[1],255 (16) ng/ml
same,"AUC (AUC∞), Alone",[1],"19,900 (21)^b ng · h/ml"
"CN(C)CCC[C@@]1(c2ccc(F)cc2)OCc2cc(C#N)ccc21 [Escitalopram, escitalopram]",decrease in AUC in the presence of the 2D regimen,[17]; [21],25%
same,change in the Cmax and AUC values in the presence of the 2D regimen,[17]; [21],≤ 20%
same,AUC(0-inf),"[17]; human, plasma, 10 mg",262 ng·h/mL
"CC(=O)C[C@@H](c1ccccc1)c1c(O)c2ccccc2oc1=O [S-Warfarin, S-warfarin]",change in the Cmax and AUC values upon coadministration,[1],≤ 15%
same,"Cmax, Coadministration",[1],240 (14) ng/ml
same,"AUC (AUC∞), Alone",[1],"13,000 (25)^b ng · h/ml"
"COC(=O)N[C@H](C(=O)N1CCC[C@H]1C(=O)Nc1ccc([C@@H]2CC[C@@H](c3ccc(NC(=O)[C@@H]4CCCN4C(=O)[C@@H](NC(=O)OC)C(C)C)cc3)N2c2ccc(C(C)(C)C)cc2)cc1)C(C)C [Ombitasvir, ombitasvir]",decrease in Cmax upon coadministration,[9],2%
same,increase in AUC upon coadministration,[9],26%
same,change in the Cmax and AUC values upon coadministration,[1],≤ 15%
same,change in the Cmax and AUC values upon coadministration,[2],≤ 7%
same,change in the Cmax and AUC values upon coadministration,[3],≤ 15%
same,decrease in Cmax or AUC value upon coadministration,[4]; 2D regimen + pravastatin vs 2D regimen alone,≤ 6%
same,change in Cmax and AUC values upon coadministration,[5]; [18],≤ 12%
same,lower Cmax upon coadministration,[5]; [18],12%
same,change in the Cmax and AUC values upon coadministration,[6],≤ 10%
same,Tmax and t1/2 (where calculated),[7],not affected in a meaningful way
same,in vitro antiviral activity,[11],show in vitro antiviral activity
same,metabolic pathway,[8],predominantly metabolized by amide hydrolysis followed by oxidative metabolism
